Where two headings read alike, the source gives them in different places.
Columns and labels:
[1] = tested on: HL60 cells; assay: Annexin V apoptosis assay in proliferating and serum-deprived quiescent HL60 cells; format: cell-based; conditions: 24 h
Description: HL60 cells were cultured in RPMI 1640 supplemented (i) with or (ii) without 10% fetal bovine serum to obtain proliferating and quiescent leukemia cells respectively. Serum-deprived quiescent leukemic cells and proliferating leukemic cells were then cultured in media containing 0.5% FBS, and treated with 1 μM and 2.5 μM fenretinide, and also with chemotherapeutics as controls, 20 μM idarubicin (IDA) and 5 μM cytarabine (Ara-C).
2×10^5 cultured cells were used for evaluating apoptosis using an ApoAlert Annexin V-FITC Apoptosis Kit (BD Biosciences). Cells were washed once by PBS, resuspended in 200 μl Annexin-V binding buffer, and then stained with Annexin V-FITC 5 μl, PI 10 μl for 15 min at room temperature in the dark. Cells were subsequently analyzed by flow cytometry.
To examine the effects of fenretinide on proliferating and quiescent leukemia cells, HL60 cells were chosen as serum deprived quiescent leukemic cell model obtained when incubated in RPMI 1640 without serum for 48 h, with G0/G1 phase cells (being in quiescent state) accounting up to 59.9%. Serum-deprived quiescent leukemic cells and proliferating leukemic cells were then cultured in media containing 0.5% FBS, and treated with 1 μM and 2.5 μM fenretinide, and also with chemotherapeutics as controls, 20 μM idarubicin (IDA) and 5 μM cytarabine (Ara-C). […] Fenretinide induces intracellular production of ROS, lowers mitochondrial transmembrane potential (MTP), and eventually leads to apoptosis in a variety of malignancies. We measured MTP induced by fenretinide in proliferating and quiescent HL60 cells, as examined through rhodamine 123 and propidium iodide staining and followed by flow cytometry analysis. […] We further measured intracellular ROS abundance induced by fenretinide. […] After incubation with 1 μM and 2.5 μM fenretinide for 3 h, the ROS level of proliferating cells increased by 1.77 and 2.6 fold, respectively.

[2] = tested on: CML CD34+ cells; assay: Colony forming assay in primary CML CD34+ cells; format: cell-based, human; conditions: 14 days; for inhibition at 2 µM / inhibition at 4 µM: Homo sapiens, 336 h; for inhibition at 2 µM: 2 μM fenretinide; for inhibition at 4 µM: 4 μM fenretinide
Text: Fresh bone marrow (BM) cells were obtained from 38 patients with CML and 5 non-leukemic donors, 25 AML, 17 ALL, and 8 normal specimens with informed consent according to the Declaration of Helsinki. Approval was obtained from Institutional Review Board at the School of Medicine in Shanghai Jiao Tong University. BM mononuclear cells were isolated by Ficoll density gradient centrifugation (Shanghai Second Reagent Factory, Shanghai, China). CD34^+ Cell were selected using EasySep® Human CD34 Positive Selection kit (Stem Cell Technologies, Vancouver, BC, Canada) according to the manufacturer's instructions. […] The CD34^+ cells were cultured in a serum-free medium (StemPro 34; Gibco BRL, Gaithersburg, Md.) supplemented with growth factors (PeproTech, London, United Kingdom) (20). The growth factors consisted of GM-CSF (200 pg/mL), G-CSF (1 ng/mL); SCF (200 pg/mL); LIF (50 pg/mL), MIP-1α (200 pg/mL) and IL-6 (1 ng/mL).
A quantity of 1000 CD34^+ cells were plated in semisolid methylcellulose-based media (Methocult H4434: Stem Cell Technologies, Vancouver, BC, Canada). After incubation at 37° C. in a fully humidified atmosphere of 5% CO2 for 14 days, granulocyte macrophage-colony-forming units (CFU-GM), erythroid burst-forming units (BFU-E), granulocyte, erythrocyte and monocyte, megakaryocyte-colony-forming units (CUF-GEMM) were counted. Only clusters with >50 cells were counted as a colony.
We further performed study to examine the effects of fenretinide on colony forming in primary CML cells derived from 38 bone marrow specimens of CML patients (TABLE 1). First, CML CD34^+ Cells were isolated using EasySep® Human CD34 Positive Selection kit (Stem Cell Technologies, Vancouver, BC, Canada). Upon treated with 2 μM and 4 μM fenretinide, colony forming assays were performed respectively on granulocyte macrophage-colony-forming units (CFU-GM), erythroid burst-forming units (BFU-E), granulocyte, erythrocyte and monocyte, megakaryocyte-colony-forming units (CFU-GEMM).

[3] = tested on: XBP-1; assay: RT-PCR of ER stress marker XBP-1 splicing in K562 cells; format: cell-based; conditions: whole time courses
Text: (§1) Real-time quantitative RT-PCR was preformed on ABI7900 thermocycler detection system using SYBR Green I (Applied Biosystems, Foster City, Calif.).
Despite of tremendous efforts (Oridate et al., 1997), mechanisms underlying fenretinide-induced apoptosis are far from clear. In particular, knowledge in terms of how oxidative stress is converted into downstream activities in fenretinide-treated cancer cells is limited. We performed a comprehensive analysis of fenretinide-induced apoptosis in leukemia cell lines through microarray technology integrated robust data mining tool, and techniques of molecular biology. Transcriptome analysis of fenretinide-induced apoptosis in NB4 cells highlighted numerous stress-responsive events at the temporal-spatial level, typifying a process of oxidative stress-mediated apoptosis. Among these prominent events were genes involved in transcriptional regulation, ribosome machinery, oxidative stress, endoplasmic reticulum stress/unfolded protein response (UPR), ubiquitin-proteasome system and apoptosis (FIG. 7A). […] Recently, data have shown that fenretinide may perturb cellular homeostasis and induced ER stress, which may eventually contribute to apoptosis. ER stress is cellular defense mechanism responding to various stimuli including oxidative stressors. […]

[4] = tested on: oxidative and ER stress genes; assay: Real-time quantitative RT-PCR of oxidative and ER stress genes in CML CD34+ cells; format: cell-based, human; conditions: fenretinide-treated CML CD34+ cells
Text: as §1
Fenretinide preferentially targets more primitive leukemia stem and progenitor cells (Example 3 and Example 4), and mechanisms are involved in ROS-dependent apoptosis in a panel of leukemia cell lines. Additionally, the process of fenretinide-induced apoptosis is modulated by a large number of oxidative and ER stress genes (Example 5 and Example 6). It is of significant value to further evaluate whether fenretinide exerts similar mechanism on primitive leukemia stem and progenitor cells. Thus, we isolated CD34^+ cells from CML patients, which were subjected to real-time quantitative RT-PCR for oxidative and ER stress genes identified based on microarray analysis of fenretinide-treated K562 cells.

[5] = tested on: U937; assay: Growth inhibition and combination index in AML cell line U937; format: cell-based; conditions: U937, single agent
Description: The combination Index (CI) was used to test the combination effect of fenretinide and Ara-C on growth inhibition in AML cell line U937. The CI was calculated according to the classic isobologram equation: CI=d1/D1+d2/D2. In this equation, D1 and D2 represent the doses of drug 1 and drug 2 alone, required to produce x % effect, and d1 and d2 are the doses of drugs 1 and 2 in combination required to produce the same effect. And CI<1, CI>1 and CI=1 represent the synergism, […], respectively.

[6] = read-out: inhibition of BFU-E number
[7] = CFU-GM, read-out: inhibition of CFU-GM number

Compound: CC1=C(/C=C/C(C)=C/C=C/C(C)=C/C(=O)Nc2ccc(O)cc2)C(C)(C)CCC1 [fenretinide, N-(4-hydroxyphenyl)retinamide]
- percentage of apoptotic cells ([1]; proliferating HL60 cells, 1 μM fenretinide): 11.8%
- percentage of apoptotic cells ([1]; proliferating HL60 cells, 2.5 μM fenretinide): 36.8%
- percentage of apoptotic cells ([1]; serum-deprived quiescent HL60 cells, 1 μM fenretinide): 39.5%
- percentage of apoptotic cells ([1]; serum-deprived quiescent HL60 cells, 2.5 μM fenretinide): 52.7%
- inhibition at 2 µM [2, 6]: 24%
- inhibition at 4 µM [2, 6]: 66%
- inhibition at 2 µM [2, 7]: 19%
- inhibition at 4 µM [2, 7]: 36 ± 9%
- GFU-GEMM formed by the more primitive progenitor cells ([2]; fenretinide 2 μM and 4 μM): could not be detected
- splicing of the XBP-1 gene [3]: observable
- expression of genes involved in oxidative and ER stress [4]: highly up-regulated
- dose alone required for growth inhibition rate of 65.47% [5]: 2.72 µM

Source: US8088822B2, “Use of fenretinide or bioactive derivatives thereof and pharmaceutical compositions comprising the same” (priority 2008, dated 2012)
